We go through 6 compounds from article PMC12818446 (ACS chemical biology, 2025).

SMILES strings stand for the structures. Converted amounts (≈) assume the structure as drawn. “And” between values parts separate entries of the source, which are not always exact repeats. Equal values may be shown once. Read-outs that look alike come from different tables or passages of the source.

Experiment [1] concerns the target T1, ecLeuRS (Escherichia coli, UniProt P07813). The settings on record: cited from earlier work.
Experiment [2] has as its system E. coli ATCC25922. The experiment can be described thus: MIC, visible growth in 96-well plates. The class given is cell-based, Escherichia coli.
In experiment [3] the target is T1, ecLeuRS. The experiment can be described thus: SPR single-cycle kinetics, BAP-ecLeuRS in the presence of AMP. The class given is binding. The conditions noted are these: for Kd/IC50: ratio of SPR Kd (AMP) and IC50 after 1 h preincubation; for kon: read-out: SPR kon.
For experiment [4], the system named is M. tuberculosis H37Rv. Kind of experiment: MIC, microplate Alamar blue assay. The class given is cell-based. The settings on record: Mycobacterium tuberculosis. A general note: The colour change of resazurin is a common sign of viable cells or microbes.
The test system of experiment [5] is human mitochondrial LeuRS. The settings on record: read-out: reported IC50; cited from earlier work.
Experiment [6] deals with E. coli ATCC25922. Kind of experiment: Checkerboard MIC assay and FIC index. The class given is cell-based, Escherichia coli. The settings on record: for MIC: Escherichia coli.
Experiment [7] concerns M. tuberculosis H37Rv_LuxABCDE. The experiment can be described thus: Post-antibiotic effect, autobioluminescent strain. In kind it is cell-based, Mycobacterium tuberculosis.
Experiment [8] addresses T2, mtLeuRS (Mycobacterium tuberculosis, UniProt P9WFV1). The experiment can be described thus: biochemical. The settings on record: IC50, 1 h preincubation, 1 h preincubation with enzyme and mttRNA^Leu.
Experiment [9] concerns E. coli ΔtolC and ΔacrAB. In kind it is cell-based, Escherichia coli.
The subject of experiment [10] is E. coli mutant strains (ecLeuRS D342E, G333D, D345N, V335D). The experiment can be described thus: microbe, parasite or virus in culture. The class given is cell-based, Escherichia coli.
The target of experiment [11] is T3, ecLeuRS D342E (Escherichia coli, UniProt P07813, D342E). The experiment can be described thus: biochemical. The class given is biochemical.
T3 sequence (P07813 whole entry D342E): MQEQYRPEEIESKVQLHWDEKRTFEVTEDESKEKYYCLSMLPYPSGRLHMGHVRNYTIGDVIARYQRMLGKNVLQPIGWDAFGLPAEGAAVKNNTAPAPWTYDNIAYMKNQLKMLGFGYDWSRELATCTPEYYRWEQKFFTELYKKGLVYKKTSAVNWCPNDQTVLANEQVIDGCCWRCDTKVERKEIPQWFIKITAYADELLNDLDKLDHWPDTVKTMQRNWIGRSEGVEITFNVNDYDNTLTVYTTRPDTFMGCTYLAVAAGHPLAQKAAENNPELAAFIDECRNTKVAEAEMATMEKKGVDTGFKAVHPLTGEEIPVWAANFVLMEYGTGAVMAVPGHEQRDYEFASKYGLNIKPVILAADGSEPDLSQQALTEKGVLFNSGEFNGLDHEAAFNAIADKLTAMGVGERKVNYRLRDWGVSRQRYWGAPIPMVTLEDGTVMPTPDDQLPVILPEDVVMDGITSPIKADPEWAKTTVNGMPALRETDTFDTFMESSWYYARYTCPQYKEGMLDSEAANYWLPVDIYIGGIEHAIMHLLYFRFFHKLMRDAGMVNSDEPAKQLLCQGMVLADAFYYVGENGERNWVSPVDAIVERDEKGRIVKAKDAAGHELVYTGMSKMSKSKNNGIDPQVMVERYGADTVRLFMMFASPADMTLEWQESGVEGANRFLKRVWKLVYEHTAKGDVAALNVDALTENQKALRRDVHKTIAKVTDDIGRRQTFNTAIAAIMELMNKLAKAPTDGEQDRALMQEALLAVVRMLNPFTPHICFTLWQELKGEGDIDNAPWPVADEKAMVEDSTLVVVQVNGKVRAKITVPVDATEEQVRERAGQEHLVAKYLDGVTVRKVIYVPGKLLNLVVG
For experiment [12], the target named is T3, ecLeuRS D342E. The experiment can be described thus: biochemical. The class given is binding.
Experiment [13] concerns the target T2, mtLeuRS. The class given is binding.
Experiment [14] concerns human cytoplasmic LeuRS. The settings on record: read-out: reported IC50; cited from earlier work.
Experiment [15] has as its target T2, mtLeuRS. The settings on record: mtLeuRS in the presence of AMP; cited from earlier work.
Experiment [16] addresses T1, ecLeuRS. The experiment can be described thus: LeuRS aminoacylation-activity assay. The conditions noted are these: IC50, 1 h preincubation, 1 h preincubation with enzyme and ectRNA^Leu. The class given is biochemical.
The test system of experiment [17] is E. coli ATCC25922. The experiment can be described thus: Time-kill assay. In kind it is cell-based, Escherichia coli. The conditions noted are these: combination of ganfeborole and Nva, M9 medium.
The test system of experiment [18] is M. tuberculosis. The conditions noted are these: cited from earlier work.
[19] abbreviates: 1xMIC exposure for 2.5 h, 10,000-fold dilution.
[20] abbreviates: 10xMIC exposure for 2.5 h, 10,000-fold dilution.
Where [21] appears, read: 30xMIC exposure for 2.5 h, 10,000-fold dilution.
Where [22] appears, read: 50xMIC exposure for 2.5 h, 10,000-fold dilution.

T1 sequence (P07813 whole entry): as the sequence (P07813 whole entry D342E) above, with E342D counted along it
T2 sequence (P9WFV1 whole entry): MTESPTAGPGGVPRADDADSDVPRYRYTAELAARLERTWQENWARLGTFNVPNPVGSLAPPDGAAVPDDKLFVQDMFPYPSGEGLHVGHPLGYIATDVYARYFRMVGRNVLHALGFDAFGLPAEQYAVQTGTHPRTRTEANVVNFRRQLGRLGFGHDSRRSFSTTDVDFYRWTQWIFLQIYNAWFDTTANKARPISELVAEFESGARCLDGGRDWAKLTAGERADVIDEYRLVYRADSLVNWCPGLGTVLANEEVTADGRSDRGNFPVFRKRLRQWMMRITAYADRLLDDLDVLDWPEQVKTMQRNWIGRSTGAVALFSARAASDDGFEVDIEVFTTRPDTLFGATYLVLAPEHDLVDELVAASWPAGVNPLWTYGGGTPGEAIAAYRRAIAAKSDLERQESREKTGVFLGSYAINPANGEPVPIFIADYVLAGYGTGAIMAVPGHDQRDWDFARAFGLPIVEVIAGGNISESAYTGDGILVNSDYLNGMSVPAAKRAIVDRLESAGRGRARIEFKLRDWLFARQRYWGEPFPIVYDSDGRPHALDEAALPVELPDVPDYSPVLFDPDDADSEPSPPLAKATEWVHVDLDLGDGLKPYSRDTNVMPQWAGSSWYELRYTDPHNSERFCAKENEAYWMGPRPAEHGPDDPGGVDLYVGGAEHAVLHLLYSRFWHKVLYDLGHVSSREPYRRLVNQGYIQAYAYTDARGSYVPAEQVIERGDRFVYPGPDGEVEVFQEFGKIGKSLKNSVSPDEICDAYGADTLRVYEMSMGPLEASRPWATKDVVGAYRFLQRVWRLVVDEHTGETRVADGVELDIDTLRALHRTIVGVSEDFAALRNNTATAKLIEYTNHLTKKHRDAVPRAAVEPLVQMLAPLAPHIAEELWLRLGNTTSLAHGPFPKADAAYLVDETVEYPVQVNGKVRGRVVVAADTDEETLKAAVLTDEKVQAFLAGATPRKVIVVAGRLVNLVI

For the compound `NCC1OB(O)c2c(OCCCO)cccc21` (centres unmarked) [AN3213], in experiment [1] (ecLeuRS and tRNA^Leu), the reported residence time is given as 23 h.

With `NC[C@H]1OB(O)c2c(OCCCO)cccc21` [Epetraborole], the residence time in experiment [1] (ecLeuRS with tRNA^Leu) was 23 h. The same compound came in with an MIC in experiment [2] (Escherichia coli, ATCC25922) of 1.56 µM (≈ 0.37 µg/mL). Further, in experiment [3], the dissociation constant (Kd) was 1100 ± 71 nM and the kon stood at 62000 ± 33000 M⁻¹ s⁻¹. Also, the Kd/IC50 in experiment [3] (ecLeuRS) is reported as 367.

Take `NC[C@H]1OB(O)c2c(OCCO)ccc(Cl)c21` [Ganfeborole, (S)-3-(Aminomethyl)-4-chloro-7-(2-hydroxyethoxy)benzo[c][1,2]oxaborol-1(3H)-ol]: the MIC in [4] was 0.058 µM (≈ 0.0149 µg/mL); in experiment [6] (ATCC25922, read-out: MIC of ganfeborole + 12.5 μM Nva, E. coli ATCC25922, M9 media, + 12.5 μM Nva), 0.4 µM; in [6] (ATCC25922, read-out: MIC of ganfeborole + 100 μM Nva + 100 μM Leu, E. coli ATCC25922, M9 media, + 100 μM Nva + 100 μM Leu), 1600 µM; in experiment [10], 1.56 µM (≈ 0.402 µg/mL); in experiment [10] (Escherichia coli, read-out: MIC, four mutant strains together), 1.56 to 6.25 µM (≈ 0.402 to 1.61 µg/mL); in experiment [2] (E. coli wild-type, Table 4 (CAMH medium)), over 1000 µM. Also, the MIC in experiment [2] (Escherichia coli, ATCC25922) is over 1000 µM. Besides, the IC50 in experiment [5] is over 300000 nM; in experiment [8], 1 ± 0.1 nM; in experiment [11] (IC50, 2 min preincubation) it was 278 ± 19 nM; in experiment [11] (IC50, 20 min preincubation) it was 60 ± 4 nM; in [11] (IC50, 1 h preincubation) it was 20 ± 2 nM; in experiment [14], 132000 nM. In experiment [16], this compound returned an IC50 of 2 ± 0.1 nM. Also, the “fold decrease in the MIC of ganfeborole on addition of Nva” value in [6] (E. coli, 12.5 μM Nva) is over 1000 fold. In experiment [6] (checkerboard of Nva and ganfeborole, E. coli ATCC25922), the FICI is under 0.5. In experiment [7] (setting [19]), the “PAE 1xMIC” value was 0 h. Moreover, the “PAE 10xMIC” value in experiment [7] (setting [20]) is reported as 32 ± 2 h. In addition, in [7] (setting [21]), the “PAE 30xMIC” value is on record as 39 ± 2 h. The “PAE 50xMIC” value in experiment [7] (setting [22]) was 77 ± 4 h; in experiment [7] (50xMIC exposure for 2.5 h, 10,000-fold dilution, listed as ganfeborole), 77 h. Further, the “MIC / antibacterial activity in efflux pump mutant strains” value in experiment [9] was “no antibacterial activity”. In addition, the “antibacterial activity, no activity up to” value in [9] is reported as over 1 mM. Further, the “fold increase in IC50, D342E mutant versus ecLeuRS” value in experiment [11] is 10 fold. In addition, the “antibacterial activity towards E. coli, no activity up to” value in experiment [2] (wild-type E. coli) was over 1 mM. Further, the Kd in [12] was 1700 ± 197 nM; in [3], 17 ± 1 nM; in [15], 10.4 nM. Besides, the Kd/IC50 in experiment [12] amounted to 85; in experiment [13] (ratio of SPR Kd (AMP) and IC50 after 1 h preincubation), 7; in experiment [3] (ecLeuRS), 8.5. Besides, the koff in [12] (read-out: SPR koff) was 0.07 ± 0.0071 s⁻¹; in [3] (read-out: SPR koff), 0.00016 ± 1e-05 s⁻¹. The values for the kon in experiment [12] (read-out: SPR kon) and in experiment [3] were 42000 ± 1000 M⁻¹ s⁻¹ and 9500 ± 500 M⁻¹ s⁻¹, respectively. For the same compound, the residence time in [12] (read-out: SPR tR (residence time)) was determined as 0.24 ± 0.02 min; in experiment [3] (read-out: SPR tR (residence time), ecLeuRS, in the presence of AMP), 100 min. Besides, the “fold more potent binding than compound 1” value in experiment [13] (SPR with AMP) is listed as ~ 50 fold; in experiment [3] (ecLeuRS, SPR with AMP), 30-40 fold. The “SPR tR (residence time)” value in [3] (ecLeuRS, in the presence of AMP) is reported as 104 ± 5 min. Moreover, the time-kill result in experiment [17] is “cidality”.

Take `NNC(=O)c1ccncc1` [Isoniazid]: the MIC in [4] came to 0.23 µM (≈ 0.0315 µg/mL). In [7] (1x to 50xMIC), the “PAE at any concentration” value is recorded as “no detectable PAE”. Moreover, the “PAE 1xMIC” value in experiment [7] (setting [19]) was found to be 0 h. For the same compound, the “PAE 10xMIC” value in experiment [7] (setting [20]) is recorded as 0 h. Also, the “PAE 30xMIC” value in experiment [7] (setting [21]) came out at 0 h. Also, the “PAE 50xMIC” value in experiment [7] (setting [22]) amounted to 0 h.

For the compound `CCC[C@H](N)C(=O)O` [Nva, L-Norvaline], the MIC came out at 25 µM in [6] (ATCC25922, read-out: MIC of Nva with 6.4 μM ganfeborole, E. coli ATCC25922, in the presence of 3.1 μM Leu) and 1600 µM in experiment [6] (ATCC25922, read-out: MIC of Nva with 6.4 μM ganfeborole, E. coli ATCC25922, with 200 μM Leu). For the same compound, the “effect on bacterial growth, no effect up to” value in [2] (Nva alone, E. coli) was over 200 µM.

With `CO[C@H]1/C=C/O[C@@]2(C)Oc3c(C)c(O)c4c(O)c(c(/C=N/N5CCN(C)CC5)c(O)c4c3C2=O)NC(=O)/C(C)=C\C=C\[C@H](C)[C@H](O)[C@@H](C)[C@@H](O)[C@@H](C)[C@H](OC(C)=O)[C@@H]1C` [Rifampicin], in [4], the MIC is 0.04 µM (≈ 0.0329 µg/mL). Also, the PAE in [18] was 68 to 77 h. Further, in experiment [7], the “PAE 1xMIC” value was determined as 22 ± 1 h; the “PAE 10xMIC” value was found to be 30 ± 2 h; the “PAE 30xMIC” value was determined as 36 ± 3 h; the “PAE 50xMIC” value was 72 h and 72 ± 4 h.

Usually Kd stands for the free concentration of one partner at which half of the binding sites on the other are occupied at equilibrium, for simple one-to-one binding. As usually defined, the kon is a measure of how fast the partners come together. The term IC50 denotes the concentration that gives 50% inhibition. One may read the koff as the rate constant with which the complex falls apart.
